# Source: patent publication US4537717A
# Where “and” joins values, the source holds several entries; their conditions need not be identical. Equal entries are not always repeated.
# Tests used:
# [1] = tested on: Staphylococcus aureus X400; type: cell-based; conditions: methicillin-resistant strain; agar dilution; 2, 5, 17, 22 median of three tests; paired values two experiments
# [2] = tested on: Micrococcus luteus ATCC 9341; assay: agar-plate disc-diffusion test; type: cell-based; conditions: suspended in water at 1 mg/ml; 7 mm disc; 24-48 hours at 25-37° C.
# [3] = tested on: Staphylococcus aureus ATCC 6738P; assay: agar-plate disc-diffusion test; type: cell-based; conditions: suspended in water at 1 mg/ml; 7 mm disc; 24-48 hours at 25-37° C.
# [4] = tested on: Streptococcus pyogenes; assay: in vivo activity against experimental bacterial infection (ED50); conditions: mice, dose protecting fifty percent of test animals; for ED50 Streptococcus pyogenes Oral: two doses orally; for ED50 Streptococcus pyogenes Subcutaneous: two doses subcutaneously
# [5] = tested on: Staphylococcus epidermidis EPI2; type: cell-based; conditions: agar dilution; 2, 5, 17, 22 median of three tests; paired values two experiments
# [6] = tested on: Staphylococcus aureus X1.1; type: cell-based; conditions: agar dilution; 2, 5, 17, 22 median of three tests; paired values two experiments
# [7] = tested on: Bacillus subtilis ATCC 6633; assay: agar-plate disc-diffusion test; conditions: 7 mm disc, 24-48 hours at 25-37° C.; for Size of Zone of Inhibition (mm) B. subtilis ATCC 6633, grown on minimal nutrient agar: 1 mg/ml; for Size of Zone of Inhibition (mm) Bacillus subtilis ATCC 6633: suspended in water at 1 mg/ml
# Procedure: ^a Compounds were suspended in water at a concentration of 1 mg/ml; a
# 7 mm disc was dipped into the suspension and then placed on the agar
# surface; incubation: 24-48 hours at 25-37° C.
# ^b Grown on minimal nutrient agar
# [8] = tested on: Streptococcus pneumoniae Park I; type: cell-based; conditions: agar dilution; 2, 5, 17, 22 median of three tests; paired values two experiments
# [9] = tested on: Staphylococcus epidermidis EPI1; type: cell-based; conditions: agar dilution; 2, 5, 17, 22 median of three tests; paired values two experiments
# [10] = tested on: Streptococcus pneumoniae Group D X66; type: cell-based; conditions: agar dilution; 2, 5, 17, 22 median of three tests; paired values two experiments
# [11] = tested on: Streptococcus Group 9960; type: cell-based, Streptococcus pneumoniae; conditions: agar dilution; 2, 5, 17, 22 median of three tests; paired values two experiments
# [12] = tested on: Staphylococcus aureus V41; type: cell-based; conditions: penicillin-resistant strain; agar dilution; 2, 5, 17, 22 median of three tests; paired values two experiments
# [13] = toxicity test (LD50); conditions: mouse, in vivo, iv, mice; administered intravenously
# [14] = tested on: Streptococcus pyogenes C203; type: cell-based; conditions: agar dilution; 2, 5, 17, 22 median of three tests; paired values two experiments
# [15] = tested on: Staphylococcus aureus; assay: in vivo activity against experimental bacterial infection (ED50); conditions: mice; two doses subcutaneously; dose protecting fifty percent of test animals
Compound,MIC Staphylococcus aureus X400 [1],Size of Zone of Inhibition (mm) Micrococcus luteus ATCC 9341 [2],Size of Zone of Inhibition (mm) Staphylococcus aureus ATCC 6738P [3],ED50 Streptococcus pyogenes Oral [4],MIC Staphylococcus epidermidis EPI2 [5],MIC Staphylococcus aureus X1.1 [6],"Size of Zone of Inhibition (mm) B. subtilis ATCC 6633, grown on minimal nutrient agar [7]",Size of Zone of Inhibition (mm) Bacillus subtilis ATCC 6633 [7],MIC Streptococcus pneumoniae Park I [8],MIC Staphylococcus epidermidis EPI1 [9],MIC Streptococcus pneumoniae Group D X66 [10],MIC Streptococcus pneumoniae Group 9960 [11],MIC Staphylococcus aureus V41 [12],LD50 [13],MIC Streptococcus pyogenes C203 [14],ED50 Streptococcus pyogenes Subcutaneous [4],ED50 Staphylococcus aureus Subcutaneous [15]
CCCCCCCC(=O)N[C@@H](Cc1c[nH]c2ccccc12)C(=O)N[C@@H](CC(N)=O)C(=O)N[C@@H](CC(=O)O)C(=O)N[C@@H]1C(=O)NCC(=O)N[C@@H](CCCN)C(=O)N[C@@H](CC(=O)O)C(=O)N[C@H](C)C(=O)N[C@@H](CC(=O)O)C(=O)NCC(=O)N[C@H](CO)C(=O)N[C@@H]([C@H](C)CC(=O)O)C(=O)N[C@@H](CC(=O)c2ccccc2N)C(=O)O[C@@H]1C [Compound 2],8 µg/mL,23 mm,23 mm,> 200 mg/kg × 2,4 µg/mL,4 µg/mL,20 mm,18 mm,8 µg/mL,8 µg/mL,64 µg/mL,16 µg/mL,4 µg/mL,> 600 mg/kg,1 µg/mL,,
CCCCCCCCCC(=O)N[C@@H](Cc1c[nH]c2ccccc12)C(=O)N[C@H](CC(N)=O)C(=O)N[C@@H](CC(=O)O)C(=O)N[C@@H]1C(=O)NCC(=O)N[C@@H](CCCN)C(=O)N[C@@H](CC(=O)O)C(=O)N[C@H](C)C(=O)N[C@@H](CC(=O)O)C(=O)NCC(=O)N[C@H](CO)C(=O)N[C@@H]([C@H](C)CC(=O)O)C(=O)N[C@@H](CC(=O)c2ccccc2N)C(=O)O[C@@H]1C [Compound 4],,,,,,,,,,,,,,> 300 mg/kg,,,
CCCCCCCCCCCC(=O)N[C@@H](Cc1c[nH]c2ccccc12)C(=O)N[C@@H](CC(N)=O)C(=O)N[C@@H](CC(=O)O)C(=O)N[C@@H]1C(=O)NCC(=O)N[C@@H](CCCN)C(=O)N[C@@H](CC(=O)O)C(=O)N[C@H](C)C(=O)N[C@@H](CC(=O)O)C(=O)NCC(=O)N[C@H](CO)C(=O)N[C@@H]([C@H](C)CC(=O)O)C(=O)N[C@@H](CC(=O)c2ccccc2N)C(=O)O[C@@H]1C [Compound 6],,19 mm,25 mm,69 mg/kg × 2,1 µg/mL,,32 mm,20 mm,0.25 µg/mL,1 µg/mL,2 µg/mL,0.5 µg/mL,,144 mg/kg,0.125 µg/mL and 0.25 µg/mL,0.05 mg/kg × 2,0.44 mg/kg × 2
CCCCCCCCCCCCCC(=O)N[C@@H](Cc1c[nH]c2ccccc12)C(=O)N[C@@H](CC(N)=O)C(=O)N[C@@H](CC(=O)O)C(=O)N[C@@H]1C(=O)NCC(=O)N[C@@H](CCCN)C(=O)N[C@@H](CC(=O)O)C(=O)N[C@H](C)C(=O)N[C@@H](CC(=O)O)C(=O)NCC(=O)N[C@H](CO)C(=O)N[C@@H]([C@H](C)CC(=O)O)C(=O)N[C@@H](CC(=O)c2ccccc2N)C(=O)O[C@@H]1C [Compound 8],2 µg/mL,21 mm,22 mm,< 50 mg/kg × 2,2 µg/mL,,28 mm,21 mm,,1 µg/mL,,,,62.5 mg/kg,,,
CCC(C)CCCCCCC(=O)N[C@@H](Cc1c[nH]c2ccccc12)C(=O)N[C@@H](CC(N)=O)C(=O)N[C@@H](CC(=O)O)C(=O)N[C@@H]1C(=O)NCC(=O)N[C@@H](CCCNC(C)=O)C(=O)N[C@@H](CC(=O)O)C(=O)N[C@H](C)C(=O)N[C@@H](CC(=O)O)C(=O)NCC(=O)N[C@H](CO)C(=O)N[C@@H]([C@H](C)CC(=O)O)C(=O)N[C@@H](CC(=O)c2ccccc2N)C(=O)O[C@@H]1C (some centres unmarked) [Compound 14],,20 mm,21 mm,163 mg/kg × 2 and > 200 mg/kg × 2,,,25 mm,18 mm,,,,,,> 600 mg/kg,,,1.3 mg/kg × 2
CCC(C)CCCCCCC(=O)N[C@@H](Cc1c[nH]c2ccccc12)C(=O)N[C@@H](CC(N)=O)C(=O)N[C@@H](CC(=O)O)C(=O)N[C@@H]1C(=O)NCC(=O)N[C@@H](CCCNC(=O)CCC(=O)O)C(=O)N[C@@H](CC(=O)O)C(=O)N[C@H](C)C(=O)N[C@@H](CC(=O)O)C(=O)NCC(=O)N[C@H](CO)C(=O)N[C@@H]([C@H](C)CC(=O)O)C(=O)N[C@@H](CC(=O)c2ccccc2N)C(=O)O[C@@H]1C (some centres unmarked) [Compound 15],,19 mm,21 mm,> 200 mg/kg × 2,,,25 mm,18 mm,,,,,,450 mg/kg,,1.4 mg/kg × 2,6.27 mg/kg × 2
CCCCCCCC(=O)NCCC[C@@H]1NC(=O)CNC(=O)[C@@H](NC(=O)[C@H](CC(=O)O)NC(=O)[C@H](CC(N)=O)NC(=O)[C@H](Cc2c[nH]c3ccccc23)NC(=O)CCCCCCC)[C@@H](C)OC(=O)[C@H](CC(=O)c2ccccc2N)NC(=O)[C@H]([C@H](C)CC(=O)O)NC(=O)[C@@H](CO)NC(=O)CNC(=O)[C@H](CC(=O)O)NC(=O)[C@@H](C)NC(=O)[C@H](CC(=O)O)NC1=O [Compound 16],8 µg/mL,10 mm,11 mm,,16 µg/mL,8 µg/mL,17 mm,tr,4 µg/mL,16 µg/mL,> 128 µg/mL,64 µg/mL,16 µg/mL,> 600 mg/kg,4 µg/mL,,
"CCCCCCCCCCCCN[C@@H](Cc1c[nH]c2ccccc12)C(=O)N[C@@H](CC(N)=O)C(=O)N[C@@H](CC(=O)O)C(=O)N[C@@H]1C(=O)NCC(=O)N[C@@H](CCCN)C(=O)N[C@@H](CC(=O)O)C(=O)N[C@H](C)C(=O)N[C@@H](CC(=O)O)C(=O)NCC(=O)N[C@H](CO)C(=O)N[C@@H]([C@H](C)CC(=O)O)C(=O)N[C@@H](CC(=O)c2ccccc2N)C(=O)O[C@@H]1C [Compound 22, NTrp -(n-dodecyl)-A-21978C nucleus]",1 µg/mL,,,> 200 mg/kg × 2,1 µg/mL,0.5 µg/mL,,,1 µg/mL,1 µg/mL,4 µg/mL,1 µg/mL,1 µg/mL,> 300 mg/kg,0.5 µg/mL,,1.25 mg/kg × 2
NTrp -(n-Decanoyl)-NKyn -(n-decanoyl)-A-21978C [Compound 21],32 µg/mL,,,,2 µg/mL,1 µg/mL,,,0.5 µg/mL,2 µg/mL,> 128 µg/mL,128 µg/mL,4 µg/mL,,0.125 µg/mL,,
NTrp -(n-dodecyl)-NOrn -(n-dodecyl)-A-21978C nucleus [Compound 23],16 µg/mL,,,,8 µg/mL,8 µg/mL,,,8 µg/mL,8 µg/mL,32 µg/mL,8 µg/mL,8 µg/mL,,4 µg/mL,,
